Counter-ions that a name gives are not always drawn.
Target: T1, peptide A (contig29; N-terminal residues 1-25 of GJC3, hCx30.2/31.3) (Homo sapiens, UniProt Q8NFK1)
T1 construct: not the full-length connexin
T1 sequence (Q8NFK1 1-25): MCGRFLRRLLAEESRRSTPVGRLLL
Assay: surface plasmon resonance (ProteOn XPR36), immobilised biotinylated peptide
Format: binding
Conditions: PBS; 0-400 uM titration; N-terminal 25-residue peptide only

CC1(C)[C@@H](OC(=O)CCC(=O)O)CC[C@]2(C)[C@H]3C(=O)C=C4[C@@H]5C[C@@](C)(C(=O)O)CC[C@]5(C)CC[C@@]4(C)[C@]3(C)CC[C@@H]12 [carbenoxolone disodium salt]
surface plasmon resonance (ProteOn XPR36), immobilised biotinylated peptide: carbenoxolone, exhibited a pronounced binding interaction

CC(C)n1c(/C=C/C(O)CC(O)CC(=O)O)c(-c2ccc(F)cc2)c2ccccc21 (stereo not shown) [fluvastatin sodium salt]
surface plasmon resonance (ProteOn XPR36), immobilised biotinylated peptide: fluvastatin sodium salt, more pronounced binding is seen to peptide A

O=C(O)c1cccnc1Nc1cccc(C(F)(F)F)c1 [niflumic acid]
surface plasmon resonance (ProteOn XPR36), immobilised biotinylated peptide: concentration dependent binding profile of niflumic acid was observed with peptide A

CCC(C)(C)C(=O)O[C@H]1C[C@@H](C)C=C2C=C[C@H](C)[C@H](CC[C@@H](O)C[C@@H](O)CC(=O)O)[C@H]21 [simvastatin sodium salt]
surface plasmon resonance (ProteOn XPR36), immobilised biotinylated peptide: simvastatin acid sodium salt exhibited a weak, concentration dependent binding profile
